Laboratory results from US8722070B2, “Active compound combinations having insecticidal and acaricidal properties” (Bayer CropScience AG, priority 2000, dated 2014).

How the values were obtained:
[1] = test system: peach aphid (Myzus persicae); assay: Myzus test (cabbage leaves dipped into the preparation of active compound); format: in vivo; settings: individual active compound, 1.6 ppm, cabbage leaves (Brassica oleracea)
From the text: (§1) The expected action for a given combination of two active compounds can be calculated as follows, using the formula of S. R. Colby, Weeds 15 (1967), 20-22):
(§2) • X is the kill rate, expressed as a percentage of the untreated control, when employing active compound A at an application rate of m g/ha or in a concentration of m ppm, • Y is the kilt rate, expressed as a percentage of the untreated control, when employing active compound B at an application rate of n g/ha or in a concentration of n ppm and • E is the kill rate, expressed as a percentage of the untreated control, when employing active compounds A and B at application rates of m and n g/ha or in a concentration of m and n ppm, then
(§3) If the actual insecticidal kill rate exceeds the calculated value, the action of the combination is superadditive, i.e. a synergistic effect is present. In this case, the actually observed kill rate must exceed the value calculated using the above formula for the expected kill rate (E).
(§4) After the desired period of time, the kill rate in % is determined. 100% means that all the animals have been killed; 0% means that none of the animals has been killed.
(§5) Solvent: 3 parts by weight of dimethylformamide
(§6) Emulsifier: 1 part by weight of alkylaryl polyglycol ether […]
After the desired period of time, the kill in % is determined. […] The kill rates determined are calculated using Colby's formula.

[2] = test system: cotton aphid (Aphis gossypii); assay: Aphis gossypii test (cotton leaves dipped into the preparation of active compound); format: in vivo; settings: individual active compound, 1.6 ppm, cotton leaves (Gossypium hirsutum)
From the text: as §1, §2, §3, §4, §5, §6
After the desired period of time, the kill in % is determined. […] The kill rates that are determined are calculated using Colby formula.

`CC1(C)C(C=C(Cl)Cl)C1C(=O)OC(C#N)c1ccc(F)c(Oc2ccccc2)c1` (centres unmarked) [cyfluthrin, Cyfluthrin] was tested, and the “Kill rates in % after 1d” value [1] was 25% and the “Kill rates in % after 6d” value [2] was 75%.
